# ChEMBL document CHEMBL1201862, “PubChem BioAssay data set” (2004)
# The source made the active and inactive calls.
# Assays:
# [1] = target: T1, Aryl hydrocarbon receptor (Homo sapiens, UniProt P35869); assay: Luminescence-based cell-based high throughput dose response assay for activators of the Aryl Hydrocarbon Receptor (AHR). [Related pubchem assays: 2796 (Primary screen (AHR activators in singlicate)), 2845 (Confirmation screen (AHR activators in triplicate)), 434939 (Counterscreen (PXR activators in triplicate)), 2804 (Summary (AHR activators))]; format: ADME
# T1 sequence (P35869 whole entry): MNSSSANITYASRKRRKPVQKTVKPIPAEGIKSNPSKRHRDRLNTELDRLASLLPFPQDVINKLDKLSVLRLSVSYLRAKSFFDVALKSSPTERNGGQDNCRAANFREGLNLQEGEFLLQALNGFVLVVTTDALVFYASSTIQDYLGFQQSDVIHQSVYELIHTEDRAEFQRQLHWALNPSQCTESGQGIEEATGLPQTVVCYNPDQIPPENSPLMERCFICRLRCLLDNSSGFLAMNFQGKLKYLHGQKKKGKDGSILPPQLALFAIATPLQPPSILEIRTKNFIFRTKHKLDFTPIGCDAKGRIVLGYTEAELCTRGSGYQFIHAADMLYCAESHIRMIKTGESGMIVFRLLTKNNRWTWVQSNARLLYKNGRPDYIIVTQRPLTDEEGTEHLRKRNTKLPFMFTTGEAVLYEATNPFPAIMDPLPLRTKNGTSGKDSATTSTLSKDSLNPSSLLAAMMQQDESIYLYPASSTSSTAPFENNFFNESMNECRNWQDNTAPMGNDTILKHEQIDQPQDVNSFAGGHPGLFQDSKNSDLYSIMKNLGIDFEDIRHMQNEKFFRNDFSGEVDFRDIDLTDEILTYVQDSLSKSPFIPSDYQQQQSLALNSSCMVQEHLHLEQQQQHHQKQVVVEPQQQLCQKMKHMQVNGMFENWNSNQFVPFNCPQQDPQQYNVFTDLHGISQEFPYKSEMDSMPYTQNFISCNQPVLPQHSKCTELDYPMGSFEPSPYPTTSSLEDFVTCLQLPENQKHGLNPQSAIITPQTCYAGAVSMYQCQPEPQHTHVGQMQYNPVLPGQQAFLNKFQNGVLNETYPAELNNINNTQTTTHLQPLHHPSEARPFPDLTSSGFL
# [2] = M. tuberculosis H37Rv growth inhibitors, H37Rv strain (AID 1626); format: functional
# [3] = cytotoxicity in KRAS-transformed pancreatic duct cells, primary screen, cell-based, fluorescence, HTS (AID 431); format: functional; settings: Homo sapiens;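 also: cell line used: HPDE-C7K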
# [4] = cytotoxicity in HPDE-C7 cells, cell-based, fluorescence, HTS (AID 430); format: functional; settings: Homo sapiens
# [5] = target: T2, Neuropeptide Y receptor type 1 (Homo sapiens, UniProt P25929); format: functional;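 also: HEK293 cells with a CNG channel challenged with NPY then isoproterenol; potency as antagonist that reverses NPY suppression of cAMP signal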
# T2 sequence (P25929 whole entry): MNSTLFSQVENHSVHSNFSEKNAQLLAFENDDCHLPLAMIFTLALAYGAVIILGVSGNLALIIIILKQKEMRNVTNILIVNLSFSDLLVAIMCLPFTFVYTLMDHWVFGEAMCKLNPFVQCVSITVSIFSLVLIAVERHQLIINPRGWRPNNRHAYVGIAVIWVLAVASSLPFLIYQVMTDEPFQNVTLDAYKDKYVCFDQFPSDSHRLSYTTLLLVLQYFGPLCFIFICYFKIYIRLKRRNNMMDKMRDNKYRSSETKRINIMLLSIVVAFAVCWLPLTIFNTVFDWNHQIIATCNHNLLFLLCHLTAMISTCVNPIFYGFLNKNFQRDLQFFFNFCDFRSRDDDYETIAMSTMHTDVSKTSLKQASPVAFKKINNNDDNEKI
# [6] = target: T3, Neuropeptide Y receptor type 2 (Homo sapiens, UniProt P49146); format: functional, cell-based;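 also: HEK293 cells expressing the receptor and a CNG channel; stimulus was NPY near EC95 followed by isoproterenol to raise cAMP; antagonist potency measured as restoring cAMP signal that NPY suppresses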
# T3 sequence (P49146 whole entry): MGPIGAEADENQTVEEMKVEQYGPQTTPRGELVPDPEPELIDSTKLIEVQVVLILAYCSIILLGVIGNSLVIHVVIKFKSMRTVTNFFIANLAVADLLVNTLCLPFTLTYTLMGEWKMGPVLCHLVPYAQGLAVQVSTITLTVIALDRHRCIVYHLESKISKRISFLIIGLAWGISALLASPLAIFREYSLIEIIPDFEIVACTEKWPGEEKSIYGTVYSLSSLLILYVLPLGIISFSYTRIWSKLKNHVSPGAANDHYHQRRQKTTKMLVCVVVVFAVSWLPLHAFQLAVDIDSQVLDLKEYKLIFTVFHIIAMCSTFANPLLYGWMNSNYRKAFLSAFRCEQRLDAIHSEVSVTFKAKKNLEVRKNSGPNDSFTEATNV
# [7] = target: Peroxisome proliferator-activated receptor gamma/Nuclear receptor coactivator 1 (Homo sapiens, UniProt P37231); format: functional;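 also: agonist potency as compounds enhance coactivator SRC-1 recruitment to PPARgamma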
# Chain of Peroxisome proliferator-activated receptor gamma/Nuclear receptor coactivator 1 (P37231 whole entry): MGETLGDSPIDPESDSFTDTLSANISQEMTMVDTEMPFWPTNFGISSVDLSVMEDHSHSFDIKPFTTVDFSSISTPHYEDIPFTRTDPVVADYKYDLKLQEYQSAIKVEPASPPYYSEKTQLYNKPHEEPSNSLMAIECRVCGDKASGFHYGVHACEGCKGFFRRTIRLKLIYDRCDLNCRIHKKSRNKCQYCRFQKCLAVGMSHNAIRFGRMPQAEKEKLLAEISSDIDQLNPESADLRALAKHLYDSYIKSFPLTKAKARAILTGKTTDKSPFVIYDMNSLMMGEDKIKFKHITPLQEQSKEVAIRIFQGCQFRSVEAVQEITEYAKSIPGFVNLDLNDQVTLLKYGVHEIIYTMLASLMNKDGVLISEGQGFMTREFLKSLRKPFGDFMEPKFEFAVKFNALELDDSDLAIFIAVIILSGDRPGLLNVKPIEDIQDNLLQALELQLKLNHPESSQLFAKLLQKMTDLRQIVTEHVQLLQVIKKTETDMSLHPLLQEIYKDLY
# Chain of Peroxisome proliferator-activated receptor gamma/Nuclear receptor coactivator 1 (Q15788 whole entry, further chain): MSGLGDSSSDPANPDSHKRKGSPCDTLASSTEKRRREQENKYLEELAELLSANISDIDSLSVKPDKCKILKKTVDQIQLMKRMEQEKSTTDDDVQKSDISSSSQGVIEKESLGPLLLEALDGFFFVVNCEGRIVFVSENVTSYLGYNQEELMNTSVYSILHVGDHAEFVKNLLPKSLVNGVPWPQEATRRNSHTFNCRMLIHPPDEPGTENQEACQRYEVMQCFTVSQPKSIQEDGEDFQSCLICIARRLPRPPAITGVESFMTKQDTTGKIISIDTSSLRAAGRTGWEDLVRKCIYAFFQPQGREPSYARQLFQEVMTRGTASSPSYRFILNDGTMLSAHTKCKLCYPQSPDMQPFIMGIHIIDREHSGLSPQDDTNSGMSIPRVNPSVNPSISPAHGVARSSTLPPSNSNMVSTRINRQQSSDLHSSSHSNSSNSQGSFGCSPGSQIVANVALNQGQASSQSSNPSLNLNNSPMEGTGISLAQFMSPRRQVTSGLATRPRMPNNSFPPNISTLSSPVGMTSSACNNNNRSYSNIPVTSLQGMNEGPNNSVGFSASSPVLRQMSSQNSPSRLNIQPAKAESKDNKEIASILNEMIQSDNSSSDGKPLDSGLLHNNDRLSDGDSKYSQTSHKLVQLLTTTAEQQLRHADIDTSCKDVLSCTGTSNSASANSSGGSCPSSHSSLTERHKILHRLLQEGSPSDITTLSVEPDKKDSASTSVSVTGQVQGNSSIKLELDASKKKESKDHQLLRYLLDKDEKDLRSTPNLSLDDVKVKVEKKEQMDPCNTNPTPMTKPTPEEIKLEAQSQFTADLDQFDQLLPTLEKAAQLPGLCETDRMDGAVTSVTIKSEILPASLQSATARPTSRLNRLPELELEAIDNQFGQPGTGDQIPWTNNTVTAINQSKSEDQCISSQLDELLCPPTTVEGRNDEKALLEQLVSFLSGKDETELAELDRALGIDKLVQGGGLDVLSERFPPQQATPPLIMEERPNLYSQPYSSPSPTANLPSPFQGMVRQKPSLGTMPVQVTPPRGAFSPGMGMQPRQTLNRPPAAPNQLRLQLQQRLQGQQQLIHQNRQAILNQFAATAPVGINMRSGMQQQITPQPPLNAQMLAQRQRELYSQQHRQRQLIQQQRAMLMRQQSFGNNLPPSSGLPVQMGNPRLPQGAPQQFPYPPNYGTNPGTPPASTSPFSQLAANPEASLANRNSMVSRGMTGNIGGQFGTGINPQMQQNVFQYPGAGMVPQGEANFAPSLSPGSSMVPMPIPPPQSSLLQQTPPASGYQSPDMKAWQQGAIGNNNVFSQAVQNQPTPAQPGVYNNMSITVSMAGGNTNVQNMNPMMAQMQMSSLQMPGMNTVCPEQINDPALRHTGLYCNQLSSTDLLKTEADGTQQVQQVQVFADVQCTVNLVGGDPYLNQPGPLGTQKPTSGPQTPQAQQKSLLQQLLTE
# [8] = target: Peroxisome proliferator-activated receptor gamma/Nuclear receptor coactivator 3 (Homo sapiens, UniProt P37231); format: functional;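 also: agonist potency for raising coactivator recruitment to the receptor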
# Chain of Peroxisome proliferator-activated receptor gamma/Nuclear receptor coactivator 3 (P37231 whole entry): as the sequence (P37231 whole entry) above
# Chain of Peroxisome proliferator-activated receptor gamma/Nuclear receptor coactivator 3 (Q9Y6Q9 whole entry, further chain): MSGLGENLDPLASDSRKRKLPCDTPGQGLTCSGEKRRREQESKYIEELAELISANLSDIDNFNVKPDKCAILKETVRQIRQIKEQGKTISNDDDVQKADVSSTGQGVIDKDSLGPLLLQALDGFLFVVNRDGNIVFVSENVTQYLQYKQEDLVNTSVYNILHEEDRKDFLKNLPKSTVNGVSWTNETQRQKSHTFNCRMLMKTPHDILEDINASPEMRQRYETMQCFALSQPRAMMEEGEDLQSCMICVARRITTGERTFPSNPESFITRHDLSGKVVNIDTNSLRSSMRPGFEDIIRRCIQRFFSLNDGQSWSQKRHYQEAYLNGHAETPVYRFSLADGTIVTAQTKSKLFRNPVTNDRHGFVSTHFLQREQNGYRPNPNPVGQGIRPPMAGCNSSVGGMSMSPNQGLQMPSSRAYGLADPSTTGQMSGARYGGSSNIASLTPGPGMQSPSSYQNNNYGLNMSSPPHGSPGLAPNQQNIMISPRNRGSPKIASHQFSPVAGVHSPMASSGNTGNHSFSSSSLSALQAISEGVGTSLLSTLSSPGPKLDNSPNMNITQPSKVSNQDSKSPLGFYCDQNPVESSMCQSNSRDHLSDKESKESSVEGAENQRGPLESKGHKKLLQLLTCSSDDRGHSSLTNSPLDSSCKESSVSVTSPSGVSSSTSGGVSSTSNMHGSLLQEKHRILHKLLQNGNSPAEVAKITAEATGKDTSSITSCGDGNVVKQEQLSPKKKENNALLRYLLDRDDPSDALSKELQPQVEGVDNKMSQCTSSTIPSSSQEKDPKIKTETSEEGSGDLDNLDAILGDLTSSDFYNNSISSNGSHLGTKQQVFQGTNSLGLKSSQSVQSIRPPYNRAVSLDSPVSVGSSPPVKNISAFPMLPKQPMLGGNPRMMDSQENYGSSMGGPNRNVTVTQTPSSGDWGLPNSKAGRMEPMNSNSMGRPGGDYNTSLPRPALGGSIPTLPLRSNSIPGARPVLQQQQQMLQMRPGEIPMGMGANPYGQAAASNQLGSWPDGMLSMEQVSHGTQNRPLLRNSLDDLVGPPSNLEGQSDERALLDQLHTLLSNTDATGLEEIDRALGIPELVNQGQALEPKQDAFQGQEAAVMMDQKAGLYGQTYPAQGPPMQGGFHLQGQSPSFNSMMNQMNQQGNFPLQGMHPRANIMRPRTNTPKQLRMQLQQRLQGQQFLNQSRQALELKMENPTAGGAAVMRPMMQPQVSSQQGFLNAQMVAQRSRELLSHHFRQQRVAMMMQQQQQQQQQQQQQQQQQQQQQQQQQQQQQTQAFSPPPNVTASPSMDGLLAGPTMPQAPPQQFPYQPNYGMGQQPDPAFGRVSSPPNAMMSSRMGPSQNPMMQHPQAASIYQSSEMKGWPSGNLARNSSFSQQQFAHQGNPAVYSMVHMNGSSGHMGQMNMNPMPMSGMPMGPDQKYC
# [9] = target: Peroxisome proliferator-activated receptor gamma/Nuclear receptor coactivator 2 (Homo sapiens, UniProt P37231); format: functional;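 also: agonist potency for raising coactivator recruitment to the receptor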
# [10] = Luminescence Cell-Based Dose Response to Identify Activators of Luciferase Translation or Activity in H4-C Neuroglioblastoma Cells. [Related pubchem assays: 1829 (Project Summary), 1814 (Primary HTS)]; format: functional
# [11] = Luminescence Cell-Based Dose Response HTS to Identify Activators of Luciferase Translation or Activity in H4 […] Cells. [Related pubchem assays: 1829 (Project Summary), 1814 (Primary HTS)]; format: functional
# [12] = Luminescence Cell-Based Dose Response to Identify Activators of 5'UTR Stem-Loop Driven Prion Protein mRNA Translation in H4-C Neuroglioblastoma Cells. [Related pubchem assays: 1829 (Project Summary), 1814 (Primary HTS)]; format: functional
# [13] = Luminescence Cell-Based Dose Confirmation to Identify Activators of 5'UTR Stem-Loop Driven Alpha-Synuclein mRNA Translation in H4 Neuroglioblastoma Cells. [Related pubchem assays: 1829 (Project Summary), 1814 (Primary HTS)]; format: functional
# [14] = Luminescence Cell-Based Dose Confirmation HTS to Identify Activators of 5'UTR Stem-Loop Driven Alpha-Synuclein mRNA Translation in H4 Neuroglioblastoma Cells. [Related pubchem assays: 1829 (Project Summary), 1814 (Primary HTS)]; format: functional
# [15] = target: T4, Oxysterols receptor LXR-beta (Homo sapiens, UniProt P55055); format: functional, cell-based;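 also: Cell-based luminescence dose-response assay of agonist activity at LXR, run as a confirmatory counterscreen to a daf-12 agonist screen; HEK293 cells with Gal4-LXR fusion and GAL4-driven luciferase reporter; agonist potency from rising luciferase signal of a Gal4-LXR reporter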
# T4 sequence (P55055 whole entry): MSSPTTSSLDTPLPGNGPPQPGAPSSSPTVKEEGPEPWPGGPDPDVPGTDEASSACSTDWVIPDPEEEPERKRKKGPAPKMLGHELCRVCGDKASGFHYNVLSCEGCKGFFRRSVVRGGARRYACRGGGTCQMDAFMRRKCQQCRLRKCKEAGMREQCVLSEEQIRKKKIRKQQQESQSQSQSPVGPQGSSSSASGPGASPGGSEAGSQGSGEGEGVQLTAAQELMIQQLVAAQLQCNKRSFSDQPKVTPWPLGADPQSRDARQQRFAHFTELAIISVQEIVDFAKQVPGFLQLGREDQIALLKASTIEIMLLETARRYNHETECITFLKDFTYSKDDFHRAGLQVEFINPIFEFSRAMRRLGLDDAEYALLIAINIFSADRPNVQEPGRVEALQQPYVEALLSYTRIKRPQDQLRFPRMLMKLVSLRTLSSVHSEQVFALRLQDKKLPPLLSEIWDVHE
# [16] = IOSE-T80 ovarian epithelial cell cytotoxicity, dose response, cytotoxicity control for PAX8 inhibitor project, plate reader, dry powder samples (AID 743045); format: functional, cell-based
# [17] = NIH:OVCAR-3 ovarian cancer cell cytotoxicity, dose response, PAX8 inhibitor project, plate reader, dry powder samples (AID 743044); format: functional, cell-based
# [18] = cytotoxicity in OVCAR8 ovarian cancer cells, dose response, PAX8 project, cell-based, plate reader, dry powder samples (AID 743197); format: functional; settings: OVCAR-8
# [19] = IGROV1 ovarian cancer cell cytotoxicity, dose response, PAX8 inhibitor project, plate reader, dry powder samples (AID 743043); format: functional, cell-based; settings: IGROV-1
# [20] = A2780 ovarian cancer cell cytotoxicity, dose response, cytotoxicity control, plate reader, dry powder samples (AID 743046); format: functional, cell-based
# Paired box protein Pax-8 = Paired box protein Pax-8 (Homo sapiens, UniProt Q06710); assay: inhibitors of PAX8-driven TPO luciferase reporter, dose response, RMG-I cells, cherry-pick (AID 687027); format: functional, cell-based;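 also: luciferase reporter driven by Pax8 target thyroperoxidase promoter measured by SteadyGlo luminescence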
# Chain of Paired box protein Pax-8 (Q06710 whole entry): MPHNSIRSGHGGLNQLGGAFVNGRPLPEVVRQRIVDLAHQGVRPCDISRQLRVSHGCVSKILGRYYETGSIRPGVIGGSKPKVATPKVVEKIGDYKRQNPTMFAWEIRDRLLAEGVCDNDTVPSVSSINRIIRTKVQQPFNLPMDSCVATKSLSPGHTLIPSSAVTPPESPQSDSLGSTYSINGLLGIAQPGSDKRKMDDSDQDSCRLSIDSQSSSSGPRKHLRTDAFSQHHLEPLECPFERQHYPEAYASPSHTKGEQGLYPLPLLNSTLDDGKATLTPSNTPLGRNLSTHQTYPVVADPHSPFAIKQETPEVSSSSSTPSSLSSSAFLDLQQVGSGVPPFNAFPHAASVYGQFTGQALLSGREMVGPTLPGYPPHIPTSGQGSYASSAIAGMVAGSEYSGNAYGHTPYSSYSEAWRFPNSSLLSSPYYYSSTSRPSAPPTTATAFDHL
# [21] = Dose-response inhibition of insulin secretion in a rat insulinoma line at 5 mM glucose (AID 1117331); format: functional, cell-based; settings: INS-1E
# [22] = P. falciparum Dd2 growth inhibitors, dose response, SYBR Green, cherry-picked samples (AID 1159567); format: functional, cell-based
# [23] = HepG2 cell cytotoxicity, dose response, cytotoxicity control, cherry-picked samples (AID 1159577); format: functional, cell-based
# [24] = P. falciparum Dd2 growth inhibitors, dose response, SYBR Green, dry powder samples (AID 1159566); format: functional, cell-based;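 also: potency for growth inhibition with lower SYBR green DNA signal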
# [25] = P. falciparum ATP4 D1247Y mutant growth inhibitors, dose response, NITD609-resistant line, SYBR Green, dry powder (AID 1159571); format: functional, cell-based;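 also: parasites synchronized at ring stage by sorbitol before testing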
# [26] = P. falciparum 3D7-ScDHODH growth inhibitors, dose response, SYBR Green, dry powder samples (AID 1159570); format: functional, cell-based;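 also: parasite growth measured after 72 hours of compound exposure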
# [27] = HepG2 cell cytotoxicity, dose response, cytotoxicity control, plate reader, dry powder samples (AID 1159569); format: functional, cell-based;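 also: inhibitor potency with signal falling toward the positive control level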
smiles,measurement,setting,value
CCOc1ccccc1NC(=O)c1ccc2nccnc2c1,EC50,[1],2.21 µM (active)
O=C(Nc1nc(-c2ccc(F)cc2)cs1)c1cnccn1,IC50,[2],> 100 µM (active)
C=CCn1c(N)c(C(=O)NCC2CCCO2)c2nc3ccccc3nc21 (stereo not given),EC50,[3],> 20 µM (not active)
same,EC50,[4],> 20 µM (not active)
CC(C)COc1ccc(C(=O)OC2CC(C)(C)OCC2CN(C)C)cc1 (stereo not given),IC50,[5],5.55 µM (active)
same,IC50,[6],8.01 µM (active)
Cc1n[nH]c2c1C(c1ccc(-c3ccccc3C#N)o1)C(C#N)=C(N)O2 (stereo not given),EC50,[3],16.3 µM (active)
same,EC50,[4],7.78 µM (active)
CC(C)(C)NC(=O)C1N(c2cccnc2)C(=O)C2C(C(=O)Nc3ccccc3F)C3(C)C=CC21O3 (stereo not given),EC50,[3],> 20 µM (not active)
same,EC50,[4],> 20 µM (not active)
[O-][n+]1onc2c1CCc1nnc(-c3ccccc3)cc1-2,EC50,[1],2.83 µM (active)
Cc1cccc(C)c1NC(=S)Nc1c(C)n(C)n(-c2ccccc2)c1=O,EC50,[7],> 79.4 µM (not active)
same,EC50,[8],> 79.4 µM (not active)
same,EC50,[9],> 79.4 µM (not active)
COc1ccc(-n2nc(C(=O)Nc3ccc4c(c3)OCO4)c3ccccc3c2=O)cc1,IC50,[5],7.16 µM (active)
same,IC50,[6],7.17 µM (active)
CC(C)(C)CC(=O)Nc1nnc(-c2cccs2)s1,EC50,[10],0.408 µM (active)
same,EC50,[11],< 0.1 µM (active)
same,EC50,[12],0.335 µM (active)
same,EC50,[13],0.231 µM (active)
same,EC50,[14],< 0.1 µM (active)
CCOC(=O)c1sc2nc(-c3ccccc3)ccc2c1N,EC50,cells,> 67.5 µM (inactive)
same,EC50,[15],> 67.5 µM (inactive)
CC(C)c1ccc(NC(=O)COc2ccc(C3SCCS3)cc2)cc1,IC50,[2],> 100 µM (active)
C/C(=N\c1ccc(C)cc1)c1sc2ccccc2c1O,EC50,cells,> 67.5 µM (inactive)
same,EC50,[15],> 67.5 µM (inactive)
C[C@H](CO)N1C[C@H](C)[C@@H](CN(C)Cc2ccccc2)OCCCC[C@H](C)Oc2ccc(NC(=O)Nc3ccc(C(F)(F)F)cc3)cc2C1=O,AC50,[16],39.8 µM (active)
same,AC50,[17],16.7 µM (active)
same,AC50,[18],25.2 µM (active)
same,AC50,[19],22.4 µM (active)
same,AC50,[20],36.2 µM (active)
same,AC50,Paired box protein Pax-8,13.5 µM (active)
C[C@@H]1CN([C@H](C)CO)C(=O)c2cc(NC(=O)Nc3ccc(C(F)(F)F)cc3)ccc2O[C@@H](C)CCCCO[C@H]1CN(C)C(=O)Nc1ccc(C(F)(F)F)cc1,AC50,[17],12.4 µM (active)
same,AC50,[18],52.3 µM (active)
same,AC50,[19],63 µM (active)
same,AC50,[20],34.1 µM (active)
same,AC50,Paired box protein Pax-8,1.89 µM (active)
CCO[C@H](Cc1ccc(OCCc2ccc(OS(C)(=O)=O)cc2)cc1)C(=O)O,IC50,[21],> 33.3 µM (inactive)
Cc1cc(O)nc(N/N=C/c2ccc(Br)s2)n1,EC50,[1],8.5 µM (active)
OC[C@H]1[C@@H](c2ccc(-c3ccc(F)cc3)cc2)[C@@H]2CN(CCC(F)(F)F)CCCCN12,AC50,[22],0.726 µM (active)
same,AC50,[23],20.5 µM (active)
same,AC50,[24],0.518 µM (active)
same,AC50,[25],1.1 µM (active)
same,AC50,[26],1.21 µM (active)
same,AC50,[27],17 µM (active)
N#Cc1ccc(-c2ccc([C@@H]3[C@@H]4CN(C(=O)C5CCCCC5)C[C@H]3N4)cc2)cc1,AC50,[22],2.79 µM (active)
same,AC50,[24],1.34 µM (active)
same,AC50,[25],2.85 µM (active)
same,AC50,[26],2.4 µM (active)
same,AC50,[27],23.8 µM (active)
